Measured values taken from patent publication US7420069B2, “Crystalline composition containing escitalopram” (H. Lundbeck A/S, priority 2001, dated 2008).
Counter-ions that a name gives are not always drawn.

Experiment: Particle size distribution by laser diffraction (Sympatec Helos)
Type: physicochemical
Conditions: for particle size: product of the prior process (background statement), method not stated at that place
Description: As used herein, “particle size distribution” means the cumulative volume size distribution of equivalent spherical diameters as determined by laser diffraction at 1 bar dispersive pressure in a Sympatec Helos equipment. “Median particle size”, correspondingly, means the median of said particle size distribution.
A wet filter cake obtained by precipitation of crude escitalopram oxalate by mixing of ethanolic solutions of escitalopram and oxalic acid, respectively, and containing approximately 35 kg escitalopram oxalate was suspended in 322 L ethanol. The material was dissolved by heating to reflux, and 150 L ethanol was removed by distillation. Cooling was applied, and the mixture was cooled from reflux to 15° C. with a cooling rate between 0.2 and 0.5° C./min in the temperature interval 80 to 40° C. During cooling, the mixture was seeded with escitalopram oxalate at 75, 65 and 60° C. (10 g each time). The crystallization mixture was kept at 15° C. for 10 hours before the crystalline escitalopram oxalate was isolated. Purified escitalopram oxalate (27.7 kg, […]) was obtained by filtration of the crystallization mixture, washing with ethanol and drying of the filter cake.

particle size | Particle size distribution, 10% quantile (Quantile 10%, cumulative volume size distribution, Sympatec Helos, 1 bar dispersive pressure) [μm] | Particle size distribution, 50% quantile (median particle size) (Quantile 50%, cumulative volume size distribution, Sympatec Helos, 1 bar dispersive pressure) [μm] | Particle size distribution, 90% quantile (Quantile 90%, cumulative volume size distribution, Sympatec Helos, 1 bar dispersive pressure) [μm] | SMILES
2-20 μm | – | – | – | CN(C)CCC[C@@]1(c2ccc(F)cc2)OCc2cc(C#N)ccc21.O=C(O)C(=O)O [escitalopram oxalate, (S)-1-[3-(dimethylamino)propyl]-1-(4-fluorophenyl)-1,3-dihydro-5-isobenzofurancarbonitrile oxalate, reference compound]
2-20 μm | – | – | – | CN(C)CCCC1(c2ccc(F)cc2)OCc2cc(C#N)ccc21 (centres unmarked) [citalopram hydrobromide, reference compound]
– | 13 | 163 | 455 | CN(C)CCC[C@@]1(c2ccc(F)cc2)OCc2cc(C#N)ccc21.O=C(O)C(=O)O [Example 1, (S)-1-[3-(dimethylamino)propyl]-1-(4-fluorophenyl)-1,3-dihydro-5-isobenzofurancarbonitrile oxalate]
